As usually defined, the IC50 is the concentration at which inhibition is half-maximal.

The source of these data is patent US20240308973A1, “PHOSPHODIESTERASE 3 (PDE3) INHIBITORS” (Zoetis Services LLC, priority 2023, published 2024).

Sequence of dog PDE3A recombinant enzyme (A0A8I3NYE0 1-1135): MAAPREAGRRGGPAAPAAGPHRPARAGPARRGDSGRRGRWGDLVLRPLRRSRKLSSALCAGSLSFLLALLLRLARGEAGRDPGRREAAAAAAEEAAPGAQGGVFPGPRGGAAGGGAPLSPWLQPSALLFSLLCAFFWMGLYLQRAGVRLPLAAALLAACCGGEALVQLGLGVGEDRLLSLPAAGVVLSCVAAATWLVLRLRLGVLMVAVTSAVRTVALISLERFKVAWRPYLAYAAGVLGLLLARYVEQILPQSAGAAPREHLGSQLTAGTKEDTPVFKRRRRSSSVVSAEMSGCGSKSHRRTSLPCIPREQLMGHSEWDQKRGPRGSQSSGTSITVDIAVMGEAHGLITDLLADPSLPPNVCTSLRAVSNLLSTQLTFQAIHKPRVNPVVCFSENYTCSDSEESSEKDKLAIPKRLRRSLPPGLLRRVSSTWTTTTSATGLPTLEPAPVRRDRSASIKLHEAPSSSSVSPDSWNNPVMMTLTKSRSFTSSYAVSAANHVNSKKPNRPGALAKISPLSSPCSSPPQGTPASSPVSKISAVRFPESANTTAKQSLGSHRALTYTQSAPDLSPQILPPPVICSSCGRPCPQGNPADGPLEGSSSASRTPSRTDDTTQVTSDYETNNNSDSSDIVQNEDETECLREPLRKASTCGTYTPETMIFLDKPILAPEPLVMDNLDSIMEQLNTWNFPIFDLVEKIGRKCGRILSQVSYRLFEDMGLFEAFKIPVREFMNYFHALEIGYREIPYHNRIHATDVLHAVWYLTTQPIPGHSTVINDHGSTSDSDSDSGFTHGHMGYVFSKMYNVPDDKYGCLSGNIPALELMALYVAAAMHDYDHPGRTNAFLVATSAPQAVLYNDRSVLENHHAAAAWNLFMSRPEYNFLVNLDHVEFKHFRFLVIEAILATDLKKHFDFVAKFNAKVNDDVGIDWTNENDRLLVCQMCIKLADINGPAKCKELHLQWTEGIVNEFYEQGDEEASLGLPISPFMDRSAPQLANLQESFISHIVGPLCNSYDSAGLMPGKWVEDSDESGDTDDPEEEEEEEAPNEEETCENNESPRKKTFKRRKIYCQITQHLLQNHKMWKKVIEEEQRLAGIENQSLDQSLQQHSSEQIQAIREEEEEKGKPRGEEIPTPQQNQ

The experiment addresses dog PDE3A recombinant enzyme (Canis lupus familiaris, UniProt A0A8I3NYE0). The experiment can be described thus: cPDE3A assay (fluorescent polarization). The class given is biochemical. The settings on record: canine PDE3A, read-out: cPDE3 Inhibition (IC50). How it is done:
cPDE3A Assay (Fluorescent Polarization)
The canine PDE3A assay kit was purchased from BPS Bioscience (San Diego, CA) which included dog PDE3A recombinant enzyme, FAM-cyclic-3′,5′-AMP (20 μM), PDE3 assay buffer, binding agent, binding agent diluent and microtiter 96-well plates. Compounds were initially dissolved in DMSO. The stock concentration was subsequently diluted in cPDE assay buffer (10× stock) and serially diluted to give a concentration response curve starting at 10 μM (≥7 total concentrations). Following the serial dilution, compound solution (0.1% final DMSO) was transferred to an assay plate (96-well) where the remaining canine PDE3A assay reagents were dispensed according to the BPS Bioscience® protocol (catalog #79735) procedure using a final concentration of 5 pg/μL of enzyme. Each compound was evaluated for the inhibition of the canine PDE3A enzyme activity using the measurement of fluorescent polarization changes. The 50% inhibition concentration (IC50) nM was calculated and reported.
As for `Cc1n[nH]c2c(Cl)cc(C3=NNC(=O)CC3C)cc12` (centres unmarked) [Example #47, 6-(7-chloro-3-methyl-1H-indazol-5-yl)-5-methyl-4,5-dihydropyridazin-3 (2H)-one], the IC50 came out at 0.004 µM.
Regarding `CC1CC(=O)NN=C1c1cc(F)c2c(c1)CC(=O)N2` (centres unmarked) [Example #50, 7-fluoro-5-(4-methyl-6-oxo-1,4,5,6-tetrahydropyridazin-3-yl)indolin-2-one], the IC50 was determined as 0.0049 µM.
To `C[C@H]1CC(=O)NN=C1c1cc(Cl)c2c(c1)C(C)(C)NC2=O` [Example #51, (S)-7-chloro-3,3-dimethyl-5-(4-methyl-6-oxo-1,4,5,6-tetrahydropyridazin-3-yl)isoindolin-2-one] belongs 0.336 µM; to `CC1SC(=O)NN=C1c1cc2c(c(-c3ccc(S(C)(=O)=O)cc3)c1)NC(=O)C2` (centres unmarked) [Example #63, 6-methyl-5-(7-(4-(methylsulfonyl)phenyl)-2-oxoindolin-5-yl)-3,6-dihydro-2H-1,3,4-thiadiazin-2-one], 0.0305 µM; to `CC1SC(=O)NN=C1c1cc(Br)c2c(c1)CCC(=O)N2` (centres unmarked) [Example #65, 5-(8-bromo-2-oxo-1,2,3,4-tetrahydroquinolin-6-yl)-6-methyl-3,6-dihydro-2H-1,3,4-thiadiazin-2-one], 0.0043 µM.
To `C[C@H]1SC(=O)NN=C1c1cc(Cl)c2c(c1)C(C)(C)CC(=O)N2` [Example #67, (6R)-5-(8-chloro-4,4-dimethyl-2-oxo-1,2,3,4-tetrahydroquinolin-6-yl)-6-methyl-3,6-dihydro-2H-1,3,4-thiadiazin-2-one] belongs 0.0483 µM; to `CC1SC(=O)NN=C1c1cc(C#N)c2c(c1)CC(=O)N2` (centres unmarked) [Example #77, 5-(6-methyl-2-oxo-3,6-dihydro-2H-1,3,4-thiadiazin-5-yl)-2-oxoindoline-7-carbonitrile], 0.0416 µM.
To `C[C@@H]1SC(=O)NN=C1c1cc(F)c2c(c1)CC(=O)N2` [Example #78, (S)-5-(7-fluoro-2-oxoindolin-5-yl)-6-methyl-3,6-dihydro-2H-1,3,4-thiadiazin-2-one] belongs 0.0078 µM.
As to `CC1SC(=O)NN=C1c1cc(Cl)c2c(c1)CNC2=O` (centres unmarked) [Example #79, 5-(7-chloro-1-oxoisoindolin-5-yl)-6-methyl-3,6-dihydro-2H-1,3,4-thiadiazin-2-one], the IC50 amounted to 0.0203 µM.
To `CC1SC(=O)NN=C1c1cc(Cl)c2c(c1)C(C)(C)NC2=O` (centres unmarked) [Example #80, 5-(7-chloro-3,3-dimethyl-1-oxoisoindolin-5-yl)-6-methyl-3,6-dihydro-2H-1,3,4-thiadiazin-2-one] belongs 0.0206 µM; to `O=C1Cc2cc(-c3cc(Cl)c4[nH]c(=O)oc4c3)cnc2N1` [Example #84, 4-chloro-6-(2-oxo-2,3-dihydro-1H-pyrrolo[2,3-b]pyridin-5-yl)benzo[d]oxazol-2 (3H)-one], 0.112 µM.
With `CC1(C)C(=O)Nc2c(Cl)cc(-c3cnc4c(c3)CCC(=O)N4)cc21` [Example #87, 6-(7-chloro-3,3-dimethyl-2-oxoindolin-5-yl)-3,4-dihydro-1,8-naphthyridin-2 (1H)-one], the IC50 stood at 0.0034 µM.
The value for `CC1CC(=O)NN=C1c1ccc2nc(Nc3ccc4ncsc4c3)n(C)c2c1` (centres unmarked) [compound 10, 6-(2-(benzo[d]thiazol-6-ylamino)-1-methyl-1H-benzo[d]imidazol-6-yl)-5-methyl-4,5-dihydropyridazin-3 (2H)-one] was 0.0073 µM.
The value for `CC1CC(=O)NN=C1c1cc(Br)c2c(c1)C(C)(C)CC(=O)N2` (centres unmarked) [compound 11, 8-bromo-4,4-dimethyl-6-(4-methyl-6-oxo-1,4,5,6-tetrahydropyridazin-3-yl)-3,4-dihydroquinolin-2 (1H)-one] was 0.0513 µM; that for `COc1ccc(-c2cc(C3=NNC(=O)CC3C)cc3c2NC(=O)CC3)cn1` (centres unmarked) [compound 14, 8-(6-methoxypyridin-3-yl)-6-(4-methyl-6-oxo-1,4,5,6-tetrahydropyridazin-3-yl)-3,4-dihydroquinolin-2 (1H)-one] was 0.0502 µM.
To `Cc1cc(C2=NNC(=O)CC2)cc2sc(=O)[nH]c12` [compound 15, 4-methyl-6-(6-oxo-1,4,5,6-tetrahydropyridazin-3-yl)benzo[d]thiazol-2 (3H)-one] belongs 0.0176 µM.
In the case of `CC1CC(=O)NN=C1c1ccc2nc(Nc3ccc(S(C)(=O)=O)cc3)n(C3CC3)c2c1` (centres unmarked) [compound 16, 6-(1-cyclopropyl-2-((4-(methylsulfonyl)phenyl)amino)-1H-benzo[d]imidazol-6-yl)-5-methyl-4,5-dihydropyridazin-3 (2H)-one], the IC50 amounted to 0.005 µM.
`CC1CC(=O)NN=C1c1cc2c(c(-c3nccs3)c1)NC(=O)CCC2` (centres unmarked) [compound 20, 7-(4-methyl-6-oxo-1,4,5,6-tetrahydropyridazin-3-yl)-9-(thiazol-2-yl)-1,3,4,5-tetrahydro-2H-benzo[b]azepin-2-one]: the IC50 amounted to 0.0324 µM.
The value for `CC1CC(=O)NN=C1c1ccc2nc(Oc3ccc4ncsc4c3)[nH]c2c1` (centres unmarked) [compound 22, 6-(2-(benzo[d]thiazol-6-yloxy)-1H-benzo[d]imidazol-6-yl)-5-methyl-4,5-dihydropyridazin-3 (2H)-one] was 0.0331 µM; that for `CC1CC(=O)NN=C1c1cc(Cl)c2[nH]c(=O)sc2c1` (centres unmarked) [compound 29, 4-chloro-6-(4-methyl-6-oxo-1,4,5,6-tetrahydropyridazin-3-yl)benzo[d]thiazol-2 (3H)-one] was 0.0032 µM; that for `CC1CC(=O)NN=C1c1cc(Br)c2nc(O)ccc2c1` (centres unmarked) [compound 45, 6-(8-bromo-2-hydroxyquinolin-6-yl)-5-methyl-4,5-dihydropyridazin-3 (2H)-one] was 0.0032 µM.
As for `CC1CC(=O)NN=C1c1cc(C2CC2)c2nc(O)ccc2c1` (centres unmarked) [compound 48, 6-(8-cyclopropyl-2-hydroxyquinolin-6-yl)-5-methyl-4,5-dihydropyridazin-3 (2H)-one], the 50% inhibitory concentration (IC50) was found to be 0.018 µM.
For the molecule `COC1CN(c2nc3ccc(C4=NNC(=O)CC4C)cc3s2)C1` (centres unmarked) [compound 49, 6-(2-(3-methoxyazetidin-1-yl)benzo[d]thiazol-6-yl)-5-methyl-4,5-dihydropyridazin-3 (2H)-one], the IC50 came out at 0.0486 µM.
With `O=c1ccc(-c2cc(Cl)c3[nH]c(=O)sc3c2)n[nH]1` [compound 52, 4-chloro-6-(6-oxo-1,6-dihydropyridazin-3-yl)benzo[d]thiazol-2 (3H)-one], the IC50 was found to be 0.0247 µM.
On to `CC1CC(=O)NN=C1c1cc(C#N)c2c(c1)CC(=O)N2` (centres unmarked) [compound 53, 5-(4-methyl-6-oxo-1,4,5,6-tetrahydropyridazin-3-yl)-2-oxoindoline-7-carbonitrile], for which the IC50 was 0.0327 µM.
For the molecule `C[C@@H]1CC(=O)NN=C1c1cc(F)c2c(c1)CC(=O)N2` [compound 54, (R)-7-fluoro-5-(4-methyl-6-oxo-1,4,5,6-tetrahydropyridazin-3-yl)indolin-2-one], the IC50 came to 0.0074 µM.
The value for `Cc1cc(C2=NNC(=O)S[C@@H]2C)cc2ccc(O)nc12` [compound 60, (R)-5-(2-hydroxy-8-methylquinolin-6-yl)-6-methyl-3,6-dihydro-2H-1,3,4-thiadiazin-2-one] was 0.0047 µM.
Consider `CC1SC(=O)NN=C1c1cc(Cl)c2c(c1)CCCC(=O)N2` (centres unmarked) [compound 64, 5-(9-chloro-2-oxo-2,3,4,5-tetrahydro-1H-benzo[b]azepin-7-yl)-6-methyl-3,6-dihydro-2H-1,3,4-thiadiazin-2-one], for which the half-maximal inhibitory concentration (IC50) was 0.0032 µM.
The value for `CC1SC(=O)NN=C1c1cc(Br)c2c(c1)CC(=O)N2` (centres unmarked) [compound 69, 5-(7-bromo-2-oxoindolin-5-yl)-6-methyl-3,6-dihydro-2H-1,3,4-thiadiazin-2-one] was 0.0109 µM; that for `CC1SC(=O)NN=C1c1cc2c(c(-c3ccccc3)c1)NC(=O)C2` (centres unmarked) [compound 70, 6-methyl-5-(2-oxo-7-phenylindolin-5-yl)-3,6-dihydro-2H-1,3,4-thiadiazin-2-one] was 0.0807 µM.
To `CC1SC(=O)NN=C1c1cc(Cl)c2nc(O)ccc2c1` (centres unmarked) [compound 81, 5-(8-chloro-2-hydroxyquinolin-6-yl)-6-methyl-3,6-dihydro-2H-1,3,4-thiadiazin-2-one] belongs 0.0032 µM.
To `CC1SC(=O)NN=C1c1cc(Cl)c2c(c1)CS(=O)(=O)N2` (centres unmarked) [compound 82, 5-(7-chloro-2,2-dioxido-1,3-dihydrobenzo[c]isothiazol-5-yl)-6-methyl-3,6-dihydro-2H-1,3,4-thiadiazin-2-one] belongs 0.0264 µM.
Turning to `Cc1cc(C2=NNC(=O)SC2C)cc2c1NC(=O)CC2` (centres unmarked) [compound 83, 6-methyl-5-(8-methyl-2-oxo-1,2,3,4-tetrahydroquinolin-6-yl)-3,6-dihydro-2H-1,3,4-thiadiazin-2-one], the 50% inhibitory concentration (IC50) was 0.0032 µM.
To `O=c1[nH]nc(-c2cc(Cl)c3[nH]c(=O)sc3c2)s1` [compound 88, 4-chloro-6-(5-oxo-4,5-dihydro-1,3,4-thiadiazol-2-yl)benzo[d]thiazol-2 (3H)-one] belongs 0.0292 µM.
Turning to `CC1(C)C(=O)Nc2c(Cl)cc(-c3n[nH]c(=O)s3)cc21` [compound 89, 5-(7-chloro-3,3-dimethyl-2-oxoindolin-5-yl)-1,3,4-thiadiazol-2 (3H)-one], the concentration for half-maximal inhibition (IC50) worked out at 0.0253 µM.
